# Source: ChEMBL document CHEMBL4507303, “Data for DCP probe TP-004” (2021)
# Columns and labels:
# [1] = target: Mitogen-activated protein kinase kinase kinase kinase 5 (Homo sapiens) (UniProt Q9Y4K4); settings: Compound concentration 1000.0 nM
# [2] = target: Mitogen-activated protein kinase 1 (Homo sapiens) (UniProt P28482); settings: Compound concentration 1000.0 nM
# [3] = target: Mitogen-activated protein kinase kinase kinase 4 (Homo sapiens) (UniProt Q9Y6R4); settings: Compound concentration 1000.0 nM
# [4] = target: Dual specificity protein kinase CLK4 (Homo sapiens) (UniProt Q9HAZ1); settings: Compound concentration 1000.0 nM
# [5] = target: TRAF2 and NCK-interacting protein kinase (Homo sapiens) (UniProt Q9UKE5); settings: Compound concentration 1000.0 nM
# [6] = target: Tyrosine-protein kinase CSK (Homo sapiens) (UniProt P41240); settings: Compound concentration 1000.0 nM
# [7] = system: Phosphatidylinositol 4,5-bisphosphate 3-kinase catalytic subunit alpha isoform (Homo sapiens), P42336 [I800L]; settings: Compound concentration 1000.0 nM
# [8] = target: Uncharacterized serine/threonine-protein kinase SBK3 (Homo sapiens) (UniProt P0C264); settings: Compound concentration 1000.0 nM
# [9] = target: Serine/threonine-protein kinase LATS1 (Homo sapiens) (UniProt O95835); settings: Compound concentration 1000.0 nM
# [10] = target: Peripheral plasma membrane protein CASK (Homo sapiens) (UniProt O14936); settings: Compound concentration 1000.0 nM
# [11] = target: GABA-A receptor; anion channel; test: GPCRScan assay: inhibition of GABAA/BZP; type: protein-complex assay, Rattus norvegicus; set-up: radioligand conc. used [nm] 0.6 – 4.0, parental cells brain tissue
# [12] = target: Serine/threonine-protein kinase 33 (Homo sapiens) (UniProt Q9BYT3); settings: Compound concentration 1000.0 nM
# [13] = target: Serine/threonine-protein kinase RIO1 (Homo sapiens) (UniProt Q9BRS2); settings: Compound concentration 1000.0 nM
# [14] = target: Serine/threonine-protein kinase LATS2 (Homo sapiens) (UniProt Q9NRM7); settings: Compound concentration 1000.0 nM
# [15] = system: Epidermal growth factor receptor (Homo sapiens), P00533 [UNDEFINED MUTATION]; settings: Compound concentration 1000.0 nM
# [16] = target: Serine/threonine-protein kinase NIM1 (Homo sapiens) (UniProt Q8IY84); settings: Compound concentration 1000.0 nM
# [17] = target: Tyrosine-protein kinase JAK2 (Homo sapiens) (UniProt O60674); settings: Compound concentration 1000.0 nM
# [18] = system: Epidermal growth factor receptor (Homo sapiens), P00533 [G719S]; settings: Compound concentration 1000.0 nM
# [19] = target: MAP kinase-interacting serine/threonine-protein kinase 1 (Homo sapiens) (UniProt Q9BUB5); settings: Compound concentration 1000.0 nM
# [20] = target: Homeodomain-interacting protein kinase 3 (Homo sapiens) (UniProt Q9H422); settings: Compound concentration 1000.0 nM
# [21] = target: Tyrosine-protein kinase Srms (Homo sapiens) (UniProt Q9H3Y6); settings: Compound concentration 1000.0 nM
# [22] = target: Serine/threonine-protein kinase TBK1 (Homo sapiens) (UniProt Q9UHD2); settings: Compound concentration 1000.0 nM
# [23] = system: Phosphatidylinositol 4,5-bisphosphate 3-kinase catalytic subunit alpha isoform (Homo sapiens), P42336 [M1043I]; settings: Compound concentration 1000.0 nM
# [24] = target: Tyrosine-protein kinase receptor TYRO3 (Homo sapiens) (UniProt Q06418); settings: Compound concentration 1000.0 nM
# [25] = target: Ribosomal protein S6 kinase alpha-5 (Homo sapiens) (UniProt O75582); settings: Compound concentration 1000.0 nM
# [26] = target: Non-receptor tyrosine-protein kinase TYK2 (Homo sapiens) (UniProt P29597); settings: Compound concentration 1000.0 nM
# [27] = target: Ribosomal protein S6 kinase alpha-3 (Homo sapiens) (UniProt P51812); settings: Compound concentration 1000.0 nM
# [28] = target: Ephrin type-A receptor 7 (Homo sapiens) (UniProt Q15375); settings: Compound concentration 1000.0 nM
# [29] = target: Protein-tyrosine kinase 2-beta (Homo sapiens) (UniProt Q14289); settings: Compound concentration 1000.0 nM
# [30] = target: Serine/threonine-protein kinase OSR1 (Homo sapiens) (UniProt O95747); settings: Compound concentration 1000.0 nM
# [31] = target: cAMP-dependent protein kinase catalytic subunit beta (Homo sapiens) (UniProt P22694); settings: Compound concentration 1000.0 nM
# [32] = target: Receptor-interacting serine/threonine-protein kinase 2 (Homo sapiens) (UniProt O43353); settings: Compound concentration 1000.0 nM
# [33] = target: Casein kinase II subunit alpha (Homo sapiens) (UniProt P68400); settings: Compound concentration 1000.0 nM
# [34] = target: NUAK family SNF1-like kinase 1 (Homo sapiens) (UniProt O60285); settings: Compound concentration 1000.0 nM
# [35] = target: Serine/threonine-protein kinase D1 (Homo sapiens) (UniProt Q15139); settings: Compound concentration 1000.0 nM
# [36] = target: Serine/threonine-protein kinase WNK2 (Homo sapiens) (UniProt Q9Y3S1); settings: Compound concentration 1000.0 nM
# [37] = target: Tyrosine-protein kinase JAK1 (Homo sapiens) (UniProt P23458); settings: Compound concentration 1000.0 nM
# [38] = target: Macrophage colony-stimulating factor 1 receptor (Homo sapiens) (UniProt P07333); settings: Compound concentration 1000.0 nM
# [39] = target: Dual specificity protein kinase CLK3 (Homo sapiens) (UniProt P49761); settings: Compound concentration 1000.0 nM
# [40] = target: Serine/threonine-protein kinase 36 (Homo sapiens) (UniProt Q9NRP7); settings: Compound concentration 1000.0 nM
# [41] = target: Cyclin-dependent kinase 15 (Homo sapiens) (UniProt Q96Q40); settings: Compound concentration 1000.0 nM
# [42] = target: Death-associated protein kinase 3 (Homo sapiens) (UniProt O43293); settings: Compound concentration 1000.0 nM
# [43] = target: Platelet-derived growth factor receptor beta (Homo sapiens) (UniProt P09619); settings: Compound concentration 1000.0 nM
# [44] = target: Cyclin-dependent kinase-like 3 (Homo sapiens) (UniProt Q8IVW4); settings: Compound concentration 1000.0 nM
# [45] = target: Death-associated protein kinase 1 (Homo sapiens) (UniProt P53355); settings: Compound concentration 1000.0 nM
# Sequence of Death-associated protein kinase 1 (Homo sapiens) (P53355 whole entry, looked up): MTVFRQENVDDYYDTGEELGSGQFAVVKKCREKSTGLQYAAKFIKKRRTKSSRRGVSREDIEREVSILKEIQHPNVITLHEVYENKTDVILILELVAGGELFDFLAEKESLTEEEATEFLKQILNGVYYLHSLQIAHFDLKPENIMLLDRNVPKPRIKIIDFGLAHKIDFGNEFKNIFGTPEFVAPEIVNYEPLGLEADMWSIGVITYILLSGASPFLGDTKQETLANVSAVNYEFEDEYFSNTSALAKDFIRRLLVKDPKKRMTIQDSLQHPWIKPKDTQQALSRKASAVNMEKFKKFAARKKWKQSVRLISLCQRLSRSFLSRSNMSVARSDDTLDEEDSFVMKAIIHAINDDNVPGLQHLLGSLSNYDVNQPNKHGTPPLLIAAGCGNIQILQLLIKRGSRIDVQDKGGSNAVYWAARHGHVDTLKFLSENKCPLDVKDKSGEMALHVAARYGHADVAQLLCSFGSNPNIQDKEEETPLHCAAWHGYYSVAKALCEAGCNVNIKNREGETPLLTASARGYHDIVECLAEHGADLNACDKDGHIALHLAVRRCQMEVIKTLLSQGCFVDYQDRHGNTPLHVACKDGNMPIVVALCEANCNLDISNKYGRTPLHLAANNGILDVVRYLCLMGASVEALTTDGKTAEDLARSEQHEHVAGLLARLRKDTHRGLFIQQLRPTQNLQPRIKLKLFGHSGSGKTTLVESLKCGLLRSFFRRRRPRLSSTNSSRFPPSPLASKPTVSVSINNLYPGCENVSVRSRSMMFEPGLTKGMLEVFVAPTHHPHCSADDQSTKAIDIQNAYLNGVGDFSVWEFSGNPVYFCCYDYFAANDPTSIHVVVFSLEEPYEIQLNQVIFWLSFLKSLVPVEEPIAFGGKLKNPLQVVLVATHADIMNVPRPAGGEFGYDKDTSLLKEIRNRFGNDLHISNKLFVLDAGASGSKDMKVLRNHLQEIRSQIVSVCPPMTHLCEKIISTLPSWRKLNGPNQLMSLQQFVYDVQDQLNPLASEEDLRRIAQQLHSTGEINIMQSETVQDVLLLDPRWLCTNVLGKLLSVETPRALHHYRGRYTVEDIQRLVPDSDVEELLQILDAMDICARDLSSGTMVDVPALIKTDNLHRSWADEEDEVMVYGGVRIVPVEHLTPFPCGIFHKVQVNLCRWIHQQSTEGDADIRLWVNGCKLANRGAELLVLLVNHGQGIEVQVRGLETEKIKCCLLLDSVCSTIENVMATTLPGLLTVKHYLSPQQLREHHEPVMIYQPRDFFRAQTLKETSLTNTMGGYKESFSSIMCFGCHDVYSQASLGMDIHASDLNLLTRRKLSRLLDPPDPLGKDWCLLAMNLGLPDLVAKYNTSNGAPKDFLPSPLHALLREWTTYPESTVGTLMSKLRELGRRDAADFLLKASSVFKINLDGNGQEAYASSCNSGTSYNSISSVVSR
# Sequence of Tyrosine-protein kinase CSK (Homo sapiens) (P41240 2-450 limits assumed): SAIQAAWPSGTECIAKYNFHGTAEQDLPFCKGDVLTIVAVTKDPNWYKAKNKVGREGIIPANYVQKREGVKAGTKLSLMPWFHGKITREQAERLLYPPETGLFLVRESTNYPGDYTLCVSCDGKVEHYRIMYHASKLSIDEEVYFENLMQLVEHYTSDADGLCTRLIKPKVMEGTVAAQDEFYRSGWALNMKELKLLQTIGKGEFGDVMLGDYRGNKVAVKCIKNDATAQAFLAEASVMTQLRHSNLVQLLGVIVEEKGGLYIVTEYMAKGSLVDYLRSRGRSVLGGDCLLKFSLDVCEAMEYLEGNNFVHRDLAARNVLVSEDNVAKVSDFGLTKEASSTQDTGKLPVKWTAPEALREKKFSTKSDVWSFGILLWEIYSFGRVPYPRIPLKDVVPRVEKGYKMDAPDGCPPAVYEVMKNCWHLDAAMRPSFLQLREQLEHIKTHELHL
# Sequence of Mitogen-activated protein kinase 1 (Homo sapiens) (P28482 whole entry): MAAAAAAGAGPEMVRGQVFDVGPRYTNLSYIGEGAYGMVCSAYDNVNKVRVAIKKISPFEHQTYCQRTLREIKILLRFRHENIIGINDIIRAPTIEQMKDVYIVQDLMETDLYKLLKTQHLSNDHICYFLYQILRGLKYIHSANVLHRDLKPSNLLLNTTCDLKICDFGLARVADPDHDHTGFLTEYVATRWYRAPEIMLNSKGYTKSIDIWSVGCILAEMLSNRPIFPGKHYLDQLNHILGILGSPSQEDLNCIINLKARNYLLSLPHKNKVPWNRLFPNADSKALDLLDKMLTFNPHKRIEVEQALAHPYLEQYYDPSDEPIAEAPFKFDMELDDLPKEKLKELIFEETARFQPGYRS
# Sequence of MAP kinase-interacting serine/threonine-protein kinase 1 (Homo sapiens) (Q9BUB5 whole entry, looked up): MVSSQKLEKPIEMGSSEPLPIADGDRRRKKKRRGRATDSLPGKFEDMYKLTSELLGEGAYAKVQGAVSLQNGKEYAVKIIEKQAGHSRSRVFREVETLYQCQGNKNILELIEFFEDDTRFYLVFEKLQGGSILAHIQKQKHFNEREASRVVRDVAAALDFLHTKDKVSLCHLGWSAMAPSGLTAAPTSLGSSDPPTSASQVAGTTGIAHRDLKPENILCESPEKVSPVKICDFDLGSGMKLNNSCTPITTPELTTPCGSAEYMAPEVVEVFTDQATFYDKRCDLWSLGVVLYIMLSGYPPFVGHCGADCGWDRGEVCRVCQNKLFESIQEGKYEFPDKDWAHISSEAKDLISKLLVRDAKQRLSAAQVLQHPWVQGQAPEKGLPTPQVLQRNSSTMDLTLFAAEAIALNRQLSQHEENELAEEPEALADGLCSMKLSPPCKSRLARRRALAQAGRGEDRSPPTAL
# Sequence of Serine/threonine-protein kinase TBK1 (Homo sapiens) (Q9UHD2 whole entry, canonical isoform): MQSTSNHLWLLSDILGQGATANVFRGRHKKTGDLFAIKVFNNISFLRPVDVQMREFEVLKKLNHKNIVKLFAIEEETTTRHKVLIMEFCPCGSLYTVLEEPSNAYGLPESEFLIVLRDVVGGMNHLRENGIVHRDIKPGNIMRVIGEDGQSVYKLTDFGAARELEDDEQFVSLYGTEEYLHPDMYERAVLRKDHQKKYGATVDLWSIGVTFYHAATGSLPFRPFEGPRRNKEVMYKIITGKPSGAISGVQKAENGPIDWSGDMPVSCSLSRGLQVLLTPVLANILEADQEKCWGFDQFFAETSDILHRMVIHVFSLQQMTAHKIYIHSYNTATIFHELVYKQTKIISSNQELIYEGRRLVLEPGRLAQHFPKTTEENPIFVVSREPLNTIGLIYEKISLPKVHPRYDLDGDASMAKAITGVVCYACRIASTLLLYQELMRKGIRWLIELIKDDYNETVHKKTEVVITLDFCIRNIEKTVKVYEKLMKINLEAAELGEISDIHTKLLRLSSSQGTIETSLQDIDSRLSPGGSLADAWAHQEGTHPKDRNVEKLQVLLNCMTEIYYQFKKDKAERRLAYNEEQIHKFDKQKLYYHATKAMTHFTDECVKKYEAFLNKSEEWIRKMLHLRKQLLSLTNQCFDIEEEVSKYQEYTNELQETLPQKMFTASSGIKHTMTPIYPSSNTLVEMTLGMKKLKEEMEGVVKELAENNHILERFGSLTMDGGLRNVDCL
# Sequence of Homeodomain-interacting protein kinase 3 (Homo sapiens) (Q9H422 whole entry, looked up): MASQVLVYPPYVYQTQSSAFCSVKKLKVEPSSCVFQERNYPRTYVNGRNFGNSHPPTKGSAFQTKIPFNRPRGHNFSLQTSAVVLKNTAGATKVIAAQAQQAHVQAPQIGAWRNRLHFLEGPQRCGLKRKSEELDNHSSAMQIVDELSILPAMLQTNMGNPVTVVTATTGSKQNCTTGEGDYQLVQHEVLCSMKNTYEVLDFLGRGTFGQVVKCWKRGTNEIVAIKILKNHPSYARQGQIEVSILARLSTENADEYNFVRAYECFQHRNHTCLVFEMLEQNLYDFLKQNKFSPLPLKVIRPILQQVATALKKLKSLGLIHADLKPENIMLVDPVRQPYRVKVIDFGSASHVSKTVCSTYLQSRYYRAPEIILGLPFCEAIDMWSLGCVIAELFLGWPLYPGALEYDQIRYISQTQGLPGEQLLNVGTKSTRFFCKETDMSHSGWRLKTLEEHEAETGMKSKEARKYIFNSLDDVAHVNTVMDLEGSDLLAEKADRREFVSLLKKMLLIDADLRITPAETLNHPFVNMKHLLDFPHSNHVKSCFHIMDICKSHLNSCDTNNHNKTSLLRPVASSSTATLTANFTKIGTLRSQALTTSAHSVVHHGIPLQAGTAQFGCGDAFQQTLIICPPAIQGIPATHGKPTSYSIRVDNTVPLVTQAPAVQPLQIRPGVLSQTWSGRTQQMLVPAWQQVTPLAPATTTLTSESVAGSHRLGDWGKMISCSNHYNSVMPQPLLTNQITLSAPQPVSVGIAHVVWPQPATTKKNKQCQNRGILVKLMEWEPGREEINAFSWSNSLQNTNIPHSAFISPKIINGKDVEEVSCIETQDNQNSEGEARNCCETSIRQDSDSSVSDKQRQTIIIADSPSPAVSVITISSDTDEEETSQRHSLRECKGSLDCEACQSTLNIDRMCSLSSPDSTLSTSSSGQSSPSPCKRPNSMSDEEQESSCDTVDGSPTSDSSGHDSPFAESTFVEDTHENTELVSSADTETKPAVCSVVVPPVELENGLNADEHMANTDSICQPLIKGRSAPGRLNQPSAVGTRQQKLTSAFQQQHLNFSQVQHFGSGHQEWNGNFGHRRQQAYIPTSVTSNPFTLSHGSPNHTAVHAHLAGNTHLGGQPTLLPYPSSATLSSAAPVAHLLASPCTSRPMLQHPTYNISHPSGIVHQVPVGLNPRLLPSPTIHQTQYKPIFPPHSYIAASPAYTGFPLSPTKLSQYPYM
# Sequence of Uncharacterized serine/threonine-protein kinase SBK3 (Homo sapiens) (P0C264 whole entry): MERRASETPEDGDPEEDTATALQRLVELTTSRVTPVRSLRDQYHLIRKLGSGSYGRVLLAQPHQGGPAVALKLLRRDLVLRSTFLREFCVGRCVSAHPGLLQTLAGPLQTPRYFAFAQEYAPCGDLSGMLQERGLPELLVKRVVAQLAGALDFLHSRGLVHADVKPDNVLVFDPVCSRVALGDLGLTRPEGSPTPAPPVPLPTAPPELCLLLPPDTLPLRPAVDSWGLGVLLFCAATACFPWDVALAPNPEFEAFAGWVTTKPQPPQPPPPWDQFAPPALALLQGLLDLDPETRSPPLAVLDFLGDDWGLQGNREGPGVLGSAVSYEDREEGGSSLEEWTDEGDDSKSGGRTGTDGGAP
structure (smiles),measurement,setting,value
Cc1nc(N2CC[C@@H](O)C2)ncc1-c1cc(C(F)(F)F)cc2[nH]ncc12 [TP-004],residual activity,[1],75%
same,residual activity,[2],100%
same,residual activity,[3],100%
same,residual activity,[4],92%
same,residual activity,[5],100%
same,residual activity,[6],100%
same,residual activity,[7],66%
same,residual activity,[8],100%
same,residual activity,[9],81%
same,residual activity,[10],95%
same,Ki,[11],4.54 µM
same,residual activity,[12],100%
same,residual activity,[13],100%
same,residual activity,[14],26%
same,residual activity,[15],90%
same,residual activity,[16],71%
same,residual activity,[17],61%
same,residual activity,[18],100%
same,residual activity,[19],61%
same,residual activity,[20],54%
same,residual activity,[21],81%
same,residual activity,[22],82%
same,residual activity,[23],100%
same,residual activity,[24],66%
same,residual activity,[25],100%
same,residual activity,[26],58%
same,residual activity,[27],58%
same,residual activity,[28],63%
same,residual activity,[29],100%
same,residual activity,[30],67%
same,residual activity,[31],79%
same,residual activity,[32],95%
same,residual activity,[33],85%
same,residual activity,[34],83%
same,residual activity,[35],75%
same,residual activity,[36],41%
same,residual activity,[37],78%
same,residual activity,[38],82%
same,residual activity,[39],76%
same,residual activity,[40],100%
same,residual activity,[41],81%
same,residual activity,[42],100%
same,residual activity,[43],58%
same,residual activity,[44],100%
same,residual activity,[45],89%
